{"source": "the kinase profiling compilation of Christmann-Franck et al. (2016)", "assay_in_all_cases": "radiometric filter-binding kinase assay", "key": {"AKT1 (human)": {"molecular_target": "AKT1 (human) (UniProt P31749)", "conditions": "ATP 5 µM"}, "AURKB (human)": {"molecular_target": "AURKB (human) (UniProt Q96GD4)", "sequence (Q96GD4 whole entry, looked up)": "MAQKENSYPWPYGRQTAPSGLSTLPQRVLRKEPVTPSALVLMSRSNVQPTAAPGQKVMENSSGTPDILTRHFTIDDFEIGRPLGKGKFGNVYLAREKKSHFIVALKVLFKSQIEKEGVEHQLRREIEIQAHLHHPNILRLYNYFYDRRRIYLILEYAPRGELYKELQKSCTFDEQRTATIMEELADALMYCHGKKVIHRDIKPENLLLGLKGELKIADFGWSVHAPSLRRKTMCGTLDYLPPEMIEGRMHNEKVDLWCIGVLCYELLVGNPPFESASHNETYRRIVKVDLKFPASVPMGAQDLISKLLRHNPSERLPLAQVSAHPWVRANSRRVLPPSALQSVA", "conditions": "ATP 20 µM"}, "BRSK2 (human)": {"molecular_target": "BRSK2 (human) (UniProt Q8IWQ3)", "conditions": "compound 1.0 µM; ATP 50 µM"}, "CAMKK1 (human)": {"molecular_target": "CAMKK1 (human) (UniProt Q8N5S9)", "conditions": "ATP 20 µM"}, "CDK2 CCNA2 (human)": {"molecular_target": "CDK2 CCNA2 (human) (UniProt P24941+P20248)", "conditions": "compound 1.0 µM; ATP 20 µM"}, "CHEK1 (human)": {"molecular_target": "CHEK1 (human) (UniProt O14757)", "conditions": "compound 10.0 µM; ATP 20 µM"}, "DYRK3 (human)": {"molecular_target": "DYRK3 (human) (UniProt O43781)", "conditions": "ATP 5 µM"}, "EEF2K (human)": {"molecular_target": "EEF2K (human) (UniProt O00418)", "sequence (O00418 whole entry, looked up)": "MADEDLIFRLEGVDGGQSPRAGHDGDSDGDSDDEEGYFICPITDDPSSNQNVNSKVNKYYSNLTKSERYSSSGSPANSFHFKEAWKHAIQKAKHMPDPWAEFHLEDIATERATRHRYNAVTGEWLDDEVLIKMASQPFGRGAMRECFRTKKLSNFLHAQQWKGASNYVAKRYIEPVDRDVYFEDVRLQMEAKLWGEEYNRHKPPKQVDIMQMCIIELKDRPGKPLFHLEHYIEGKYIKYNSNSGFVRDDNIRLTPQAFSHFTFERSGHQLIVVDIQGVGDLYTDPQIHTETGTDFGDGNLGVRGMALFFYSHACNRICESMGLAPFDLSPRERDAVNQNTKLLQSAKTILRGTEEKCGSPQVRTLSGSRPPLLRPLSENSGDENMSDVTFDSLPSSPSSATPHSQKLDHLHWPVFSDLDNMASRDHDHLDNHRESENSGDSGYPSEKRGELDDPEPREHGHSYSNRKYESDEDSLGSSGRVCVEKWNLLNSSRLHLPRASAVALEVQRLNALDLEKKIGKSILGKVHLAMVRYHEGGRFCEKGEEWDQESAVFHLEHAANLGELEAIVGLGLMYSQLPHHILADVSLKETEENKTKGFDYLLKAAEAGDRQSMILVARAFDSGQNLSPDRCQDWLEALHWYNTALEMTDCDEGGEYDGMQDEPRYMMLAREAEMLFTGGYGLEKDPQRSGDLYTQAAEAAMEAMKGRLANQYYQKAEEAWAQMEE", "conditions": "ATP 5 µM"}, "GSK3B (human)": {"molecular_target": "GSK3B (human) (UniProt P49841)", "conditions": "compound 1.0 µM; ATP 5 µM"}, "HIPK2 (human)": {"molecular_target": "HIPK2 (human) (UniProt Q9H2X6)", "sequence (Q9H2X6 whole entry, looked up)": "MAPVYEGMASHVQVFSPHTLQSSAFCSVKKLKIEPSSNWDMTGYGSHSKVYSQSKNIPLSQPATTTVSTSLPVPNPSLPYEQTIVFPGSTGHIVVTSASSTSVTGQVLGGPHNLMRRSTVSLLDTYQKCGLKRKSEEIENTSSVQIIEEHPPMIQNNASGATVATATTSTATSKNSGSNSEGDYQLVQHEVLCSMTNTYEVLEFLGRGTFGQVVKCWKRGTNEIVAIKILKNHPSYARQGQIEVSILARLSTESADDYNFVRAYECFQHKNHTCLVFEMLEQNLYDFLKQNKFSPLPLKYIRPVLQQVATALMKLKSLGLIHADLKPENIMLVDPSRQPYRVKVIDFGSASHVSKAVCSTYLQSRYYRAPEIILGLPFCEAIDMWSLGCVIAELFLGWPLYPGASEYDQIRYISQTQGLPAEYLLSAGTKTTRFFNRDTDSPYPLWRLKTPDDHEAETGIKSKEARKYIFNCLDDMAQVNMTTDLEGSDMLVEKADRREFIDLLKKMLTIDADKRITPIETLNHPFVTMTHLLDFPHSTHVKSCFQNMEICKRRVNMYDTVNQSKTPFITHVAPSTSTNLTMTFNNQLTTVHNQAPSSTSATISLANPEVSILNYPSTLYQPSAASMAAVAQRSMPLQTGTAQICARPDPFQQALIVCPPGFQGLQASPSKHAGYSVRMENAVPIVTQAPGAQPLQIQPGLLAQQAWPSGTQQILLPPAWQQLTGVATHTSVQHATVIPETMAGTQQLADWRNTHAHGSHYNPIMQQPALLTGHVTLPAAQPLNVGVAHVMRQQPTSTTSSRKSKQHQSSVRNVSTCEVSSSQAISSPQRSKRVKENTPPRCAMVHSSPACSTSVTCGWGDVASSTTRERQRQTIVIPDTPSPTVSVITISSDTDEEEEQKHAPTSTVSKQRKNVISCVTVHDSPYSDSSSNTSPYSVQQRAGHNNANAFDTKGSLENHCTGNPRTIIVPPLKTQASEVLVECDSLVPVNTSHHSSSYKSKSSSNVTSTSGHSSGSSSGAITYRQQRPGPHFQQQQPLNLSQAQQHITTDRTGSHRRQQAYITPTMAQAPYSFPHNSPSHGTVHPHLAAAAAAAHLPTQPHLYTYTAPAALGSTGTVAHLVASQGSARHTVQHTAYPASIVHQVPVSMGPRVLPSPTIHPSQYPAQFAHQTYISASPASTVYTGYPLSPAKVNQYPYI", "conditions": "ATP 5 µM"}, "HIPK3 (human)": {"molecular_target": "HIPK3 (human) (UniProt Q9H422)", "conditions": "ATP 20 µM"}, "IKBKE (human)": {"molecular_target": "IKBKE (human) (UniProt Q14164)", "sequence (Q14164 whole entry, looked up)": "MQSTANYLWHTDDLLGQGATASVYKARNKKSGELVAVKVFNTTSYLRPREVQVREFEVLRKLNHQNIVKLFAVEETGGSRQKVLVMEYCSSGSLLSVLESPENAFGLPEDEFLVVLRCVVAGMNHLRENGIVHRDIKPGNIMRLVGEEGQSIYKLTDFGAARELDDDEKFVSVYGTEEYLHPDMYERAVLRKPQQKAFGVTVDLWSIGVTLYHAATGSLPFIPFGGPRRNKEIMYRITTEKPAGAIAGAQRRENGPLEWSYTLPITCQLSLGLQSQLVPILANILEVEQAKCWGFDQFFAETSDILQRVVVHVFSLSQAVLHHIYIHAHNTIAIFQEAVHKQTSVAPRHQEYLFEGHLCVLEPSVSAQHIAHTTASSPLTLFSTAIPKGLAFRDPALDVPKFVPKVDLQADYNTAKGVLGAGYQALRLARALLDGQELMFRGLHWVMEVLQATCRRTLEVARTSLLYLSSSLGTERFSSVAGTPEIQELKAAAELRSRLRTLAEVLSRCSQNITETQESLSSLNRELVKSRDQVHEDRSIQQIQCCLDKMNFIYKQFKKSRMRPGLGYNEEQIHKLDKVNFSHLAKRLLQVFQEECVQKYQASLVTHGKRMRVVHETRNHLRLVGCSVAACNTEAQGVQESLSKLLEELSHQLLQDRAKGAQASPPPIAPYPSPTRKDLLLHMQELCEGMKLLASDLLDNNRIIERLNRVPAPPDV", "conditions": "ATP 50 µM"}, "MAPK11 (human)": {"molecular_target": "MAPK11 (human) (UniProt Q15759)", "conditions": "compound 10.0 µM; ATP 20 µM"}, "MAPK3 (human)": {"molecular_target": "MAPK3 (human) (UniProt P27361)", "conditions": "ATP 5 µM"}, "MKNK1 (human)": {"molecular_target": "MKNK1 (human) (UniProt Q9BUB5)", "sequence (Q9BUB5 whole entry, looked up)": "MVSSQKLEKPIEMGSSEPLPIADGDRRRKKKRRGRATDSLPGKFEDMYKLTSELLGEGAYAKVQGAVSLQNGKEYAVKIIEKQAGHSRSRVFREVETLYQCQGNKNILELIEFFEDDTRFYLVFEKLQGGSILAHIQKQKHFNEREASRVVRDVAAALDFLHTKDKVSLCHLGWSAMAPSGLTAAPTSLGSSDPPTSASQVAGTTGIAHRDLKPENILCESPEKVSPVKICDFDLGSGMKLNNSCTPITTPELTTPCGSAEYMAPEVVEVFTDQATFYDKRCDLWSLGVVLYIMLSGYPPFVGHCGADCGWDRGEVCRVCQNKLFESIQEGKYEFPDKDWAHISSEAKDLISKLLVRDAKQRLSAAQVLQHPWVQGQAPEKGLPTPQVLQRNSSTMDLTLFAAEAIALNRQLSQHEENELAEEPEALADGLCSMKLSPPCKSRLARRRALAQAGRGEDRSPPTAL", "conditions": "ATP 50 µM"}, "MYLK (human)": {"molecular_target": "MYLK (human) (UniProt Q15746)", "conditions": "ATP 50 µM"}, "NEK2 (human)": {"molecular_target": "NEK2 (human) (UniProt P51955)", "sequence (P51955 whole entry, looked up)": "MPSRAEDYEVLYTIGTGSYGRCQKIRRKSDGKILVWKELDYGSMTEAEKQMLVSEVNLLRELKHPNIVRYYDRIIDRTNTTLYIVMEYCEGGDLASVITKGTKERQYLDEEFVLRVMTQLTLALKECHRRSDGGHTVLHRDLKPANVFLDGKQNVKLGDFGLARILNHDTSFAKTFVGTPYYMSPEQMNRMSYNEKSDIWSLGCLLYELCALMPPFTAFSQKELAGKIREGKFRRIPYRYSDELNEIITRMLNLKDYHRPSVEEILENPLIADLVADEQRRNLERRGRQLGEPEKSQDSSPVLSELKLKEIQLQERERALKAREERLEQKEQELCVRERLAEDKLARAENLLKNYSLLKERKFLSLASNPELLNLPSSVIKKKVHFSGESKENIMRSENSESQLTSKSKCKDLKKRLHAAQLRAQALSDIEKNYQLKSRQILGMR", "conditions": "ATP 50 µM"}, "PAK4 (human)": {"molecular_target": "PAK4 (human) (UniProt O96013)", "conditions": "ATP 5 µM"}, "PIM1 (human)": {"molecular_target": "PIM1 (human) (UniProt P11309)", "sequence (P11309 whole entry, looked up)": "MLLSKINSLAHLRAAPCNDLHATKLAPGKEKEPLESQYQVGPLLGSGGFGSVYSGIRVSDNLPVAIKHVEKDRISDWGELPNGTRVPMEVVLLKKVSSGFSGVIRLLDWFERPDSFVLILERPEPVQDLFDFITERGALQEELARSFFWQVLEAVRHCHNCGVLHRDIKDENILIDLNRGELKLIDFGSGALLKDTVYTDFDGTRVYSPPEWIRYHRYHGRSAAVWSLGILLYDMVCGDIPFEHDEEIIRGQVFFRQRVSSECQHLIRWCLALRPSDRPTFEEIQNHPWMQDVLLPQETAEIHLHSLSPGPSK", "conditions": "ATP 20 µM"}, "[1]": {"molecular_target": "PRKACA or PRKACB or PRKACG (human) (UniProt P22694+P22612+P17612)", "conditions": "ATP 20 µM"}, "PRKCA (human)": {"molecular_target": "PRKCA (human) (UniProt P17252)", "conditions": "ATP 20 µM"}, "[2]": {"tested_on": "RPS6KB1 (human), P23443 [T412E]", "sequence (P23443 whole entry T412E, looked up)": "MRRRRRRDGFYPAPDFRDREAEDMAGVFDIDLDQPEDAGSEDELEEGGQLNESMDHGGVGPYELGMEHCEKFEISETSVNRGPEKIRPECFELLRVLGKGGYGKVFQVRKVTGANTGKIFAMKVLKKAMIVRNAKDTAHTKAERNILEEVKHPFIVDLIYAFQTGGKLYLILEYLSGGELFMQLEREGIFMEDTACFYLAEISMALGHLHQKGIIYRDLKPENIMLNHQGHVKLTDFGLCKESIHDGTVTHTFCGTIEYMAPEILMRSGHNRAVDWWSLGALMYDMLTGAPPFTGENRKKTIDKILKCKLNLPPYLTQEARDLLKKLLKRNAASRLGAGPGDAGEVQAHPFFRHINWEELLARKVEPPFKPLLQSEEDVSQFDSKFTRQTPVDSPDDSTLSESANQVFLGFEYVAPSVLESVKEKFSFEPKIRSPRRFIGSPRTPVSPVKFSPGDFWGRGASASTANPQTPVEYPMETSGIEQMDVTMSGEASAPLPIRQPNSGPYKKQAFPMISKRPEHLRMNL", "conditions": "ATP 20 µM"}, "[3]": {"tested_on": "SGK1 (human), O00141 [S422D]", "conditions": "compound 10.0 µM; ATP 20 µM"}, "SRC (chicken)": {"tested_on": "SRC (chicken)", "conditions": "compound 10.0 µM; ATP 50 µM; accession and sequence are those of the human protein"}, "TBK1 (human)": {"molecular_target": "TBK1 (human) (UniProt Q9UHD2)", "conditions": "compound 1.0 µM; ATP 50 µM"}}}
{"compound": "CC(C)(N)c1ccc(-c2nc3ccccc3nc2-c2ccccc2)cc1", "values": [{"measurement": "residual activity", "setting": "AKT1 (human); compound 1.0 µM", "result": 22, "unit": "%"}, {"measurement": "residual activity", "setting": "AKT1 (human); compound 10.0 µM", "result": 8, "unit": "%"}, {"measurement": "residual activity", "setting": "AURKB (human); compound 1.0 µM", "result": 82, "unit": "%"}, {"measurement": "residual activity", "setting": "AURKB (human); compound 10.0 µM", "result": 60, "unit": "%"}, {"measurement": "residual activity", "setting": "BRSK2 (human)", "result": 96, "unit": "%"}, {"measurement": "residual activity", "setting": "CAMKK1 (human); compound 1.0 µM", "result": 93, "unit": "%"}, {"measurement": "residual activity", "setting": "CAMKK1 (human); compound 10.0 µM", "result": 62, "unit": "%"}, {"measurement": "residual activity", "setting": "CDK2 CCNA2 (human)", "result": 97, "unit": "%"}, {"measurement": "residual activity", "setting": "CHEK1 (human)", "result": 85, "unit": "%"}, {"measurement": "residual activity", "setting": "DYRK3 (human); compound 1.0 µM", "result": 86, "unit": "%"}, {"measurement": "residual activity", "setting": "DYRK3 (human); compound 10.0 µM", "result": 75, "unit": "%"}, {"measurement": "residual activity", "setting": "EEF2K (human); compound 1.0 µM", "result": 93, "unit": "%"}, {"measurement": "residual activity", "setting": "EEF2K (human); compound 10.0 µM", "result": 40, "unit": "%"}, {"measurement": "residual activity", "setting": "GSK3B (human)", "result": 89, "unit": "%"}, {"measurement": "residual activity", "setting": "HIPK2 (human); compound 1.0 µM", "result": 102, "unit": "%"}, {"measurement": "residual activity", "setting": "HIPK2 (human); compound 10.0 µM", "result": 85, "unit": "%"}, {"measurement": "residual activity", "setting": "HIPK3 (human); compound 1.0 µM", "result": 77, "unit": "%"}, {"measurement": "residual activity", "setting": "HIPK3 (human); compound 10.0 µM", "result": 66, "unit": "%"}, {"measurement": "residual activity", "setting": "IKBKE (human); compound 1.0 µM", "result": 87, "unit": "%"}, {"measurement": "residual activity", "setting": "IKBKE (human); compound 10.0 µM", "result": 67, "unit": "%"}, {"measurement": "residual activity", "setting": "MAPK11 (human)", "result": 114, "unit": "%"}, {"measurement": "residual activity", "setting": "MAPK3 (human); compound 1.0 µM", "result": 93, "unit": "%"}, {"measurement": "residual activity", "setting": "MAPK3 (human); compound 10.0 µM", "result": 100, "unit": "%"}, {"measurement": "residual activity", "setting": "MKNK1 (human); compound 1.0 µM", "result": 77, "unit": "%"}, {"measurement": "residual activity", "setting": "MKNK1 (human); compound 10.0 µM", "result": 84, "unit": "%"}, {"measurement": "residual activity", "setting": "MYLK (human); compound 1.0 µM", "result": 79, "unit": "%"}, {"measurement": "residual activity", "setting": "MYLK (human); compound 10.0 µM", "result": 11, "unit": "%"}, {"measurement": "residual activity", "setting": "NEK2 (human); compound 1.0 µM", "result": 91, "unit": "%"}, {"measurement": "residual activity", "setting": "NEK2 (human); compound 10.0 µM", "result": 100, "unit": "%"}, {"measurement": "residual activity", "setting": "PAK4 (human); compound 1.0 µM", "result": 92, "unit": "%"}, {"measurement": "residual activity", "setting": "PAK4 (human); compound 10.0 µM", "result": 49, "unit": "%"}, {"measurement": "residual activity", "setting": "PIM1 (human); compound 1.0 µM", "result": 80, "unit": "%"}, {"measurement": "residual activity", "setting": "PIM1 (human); compound 10.0 µM", "result": 57, "unit": "%"}, {"measurement": "residual activity", "setting": "[1]; compound 1.0 µM", "result": 91, "unit": "%"}, {"measurement": "residual activity", "setting": "[1]; compound 10.0 µM", "result": 77, "unit": "%"}, {"measurement": "residual activity", "setting": "PRKCA (human); compound 1.0 µM", "result": 108, "unit": "%"}, {"measurement": "residual activity", "setting": "PRKCA (human); compound 10.0 µM", "result": 87, "unit": "%"}, {"measurement": "residual activity", "setting": "[2]; compound 1.0 µM", "result": 100, "unit": "%"}, {"measurement": "residual activity", "setting": "[2]; compound 10.0 µM", "result": 72, "unit": "%"}, {"measurement": "residual activity", "setting": "[3]", "result": 82, "unit": "%"}, {"measurement": "residual activity", "setting": "SRC (chicken)", "result": 118, "unit": "%"}, {"measurement": "residual activity", "setting": "TBK1 (human)", "result": 101, "unit": "%"}]}
